# Measurements as given in US20260174673A1, “COMPOSITIONS AND METHODS USING A COMBINATION OF OLEUROPEIN AND TAURINE” (SOCIÉTÉ DES PRODUITS NESTLÉ S.A., priority 2022, published 2026).
# System: myotubes differentiated from C2C12 cells
# Test: Mitochondrial calcium rise in C2C12 myotubes (mitochondrial aequorin luminescence)
# Type: cell-based
# Conditions: C2C12-derived myotubes, taurine alone at the indicated concentrations (μM) vs. control, compounds added 2 hours before measurement, 28 experiments, P<0.05 one-way ANOVA
# Protocol: To test the effect of oleuropein (or oleuropein aglycone), taurine and their combination in living cells, the inventors measured mitochondrial calcium rise in myotubes differentiated from C2C12 cells. C2C12 cells were purchased from ATCC. C2C12 cells were seeded in 96-well plates at a density of 8000 cells per well in DMEM high glucose (Gibco)+10% fetal calf serum. Myotubes were differentiated by growing the C2C12 cells in DMEM containing 2% horse serum, for 4 days. Mitochondrial calcium measurements were carried out using myotubes infected with the adenovirus (from Sirion biotech) expressing the mitochondrially targeted calcium sensor mitochondrial mutated aequorin (Montero et al., 2002 Biochem J. 2002 Jul. 15; 365(Pt 2): 451-9). For aequorin reconstitution, 24 hours after infection, myotubes were incubated for 2 h at room temperature (22±°C.) in standard medium (145 mM NaCl, 5 mM KCl, 1 mM MgCl2, 1 mM CaCl2, 10 mM glucose and 10 mM Hepes, pH 7.4) with 1 μM wild-type coelenterazine. […] Luminescence was measured at the FLIPR Tetra Aequorin (Molecular Devices). Calibration of the luminescence data into calcium concentration was carried out using an algorithm as described previously (Montero et al, 2002, Biochem J. 2002 Jul. 15; 365(Pt 2): 451-9)). Custom module analysis based on Excel (Microsoft) and GhaphPad Prism 7.02 (GraphPad) software was used for quantification.
compound,measurement,setting,value
"NCCS(=O)(=O)O [Taurine, 2-aminoethanesulfonic acid]","integrated mitochondrial calcium rise, evoked by 5 mM caffeine",,enhances mitochondrial Ca2+ elevation
same,"integrated mitochondrial calcium rise, evoked by 5 mM caffeine",listed as taurine,enhances mitochondrial function
